In patent US20050074867A1, “Preservation of competent cells at ambient temperatures” (priority 2001, published 2005):

Test system: logarithmic E. coli cells
Assay: Preservation survival and stability of logarithmic E. coli cells loaded in vitro before foam drying
Type: cell-based
Settings: for Preservation Yield (Day 0) % Survival / Preservation Yield (Day 0) Cfu/ml / Stability (Day 7 at RT) % Survival / Stability (Day 7 at RT) Cfu/ml / Stability (Day 14) % Survival / Stability (Day 14) Cfu/ml: loaded with 10% MAG at 37° C. for 30 minutes
Experimental: (3) Loading of fresh electrocompetent E. coli cells before preservation: When applicable, one aliquot of the cell concentrate (3.2 ml of cells in PBS buffer, approx. 2×10^10 cfu/ml) was mixed with 0.8 ml of 50% methyl-glucoside (MAG; 10% final concentration) and incubated at 37° C. for 30 minutes (in vitro loading). A second aliquot (3.2 ml of the cell concentrate) was mixed with 0.8 ml of PBS buffer and incubated on ice for 30 minutes (control, unloaded cells). Similar to loading with MAG, the cells were loaded with 2-deoxyglucose (2-DOG) as described in Example 5 infra.
(4) Preservation of electrocompetent E. coli cells: The cells (resuspended in PBS buffer or on 20% sucrose) were mixed with an equal mass of preservation solution consisting of 45% 2:1 sucrose:raffinose or 45% 4:1 sucrose:MAG on ice. Altematively, the cell pellets were resuspended directly in 22.5% sucrose:raffinose or 22.5% 4:1 sucrose:MAG. The 0.5 g aliquots were distributed in 5 ml glass serum vials or 0.2 g aliquots were distributed in 1.2 ml glass serum vials. To determine the survival in preservation solution before drying, cell-containing mixtures were diluted in PBS buffer containing 20% sucrose and appropriate dilutions were spread plated in duplicate on L-agar plates.
The samples were dried by foam formation. The mixtures were foamed at 0° C. and kept at that temperature until foam formation occurred. After foam was well formed, shelf temperature was increased to 20° C. and drying continued overnight (at least 12 hours).
(5) Assaying the preserved E. coli cells: Dried samples were rehydrated at room temperature. 1 ml of rehydration solution (20% sucrose) was added to the 5 ml vials and 0.2 ml was added to the 1.2 ml vials. For the determination of preservation survival, rehydrated cells were diluted and spread plated in duplicate on L-agar plates. Plates were incubated at 37° C. overnight and colonies were counted the following day.
Bacterial culture was grown until OD550=0.5 was reached (mid-log growth stage). The cell concentrates were prepared as described previously. Control cells, which were not loaded, were incubated on ice for 30 minutes. Cell concentrates were incubated with different amounts (0.15-1%, 5%, 10% and 15%) of glucose and glucose nonmetabolizable analogs at 37° C. for 30 minutes (loading). These mixtures were preserved as described previously.
Accumulation of MAG in the cells prior to drying enhances preservation of logarithmic E. coli cells. Two cell concentrates (harvested at mid-log growth stage) were prepared as described previously. To induce uptake of MAG, 0.5% glucose was added to the growth medium (“induced culture”). Both concentrates were incubated with 10% MAG at 37° C. for 30 minutes (loading). When loading was completed, one concentrate was diluted 100-fold in PBS buffer and incubated at 37° C. for an additional 30 minutes to induce expulsion of the pre-accumulated MAG. Both concentrates were preserved as described previously.
Mid-logarithmic culture was prepared as described previously. 0.5% glucose was added to the growth medium (“induced cells”). The culture was concentrated 10-fold and the concentrates were incubated for 30 minutes with 10% MAG at different temperatures (0, 20, 40, and 60° C.). The mixtures were preserved as described previously.
Effect of incubation time on accumulation of MAG in logarithmic E. coli cells. Cell concentrates were prepared as described previously (0.5% glucose was added to the growth medium) and incubated with 10% MAG at 37° C. for 0, 2.5, 5, 15, 30, and 60 minutes. The mixtures were preserved as described previously.
Effect of growth stage on accumulation of MAG in E. coli cells. E. coli cultures were grown in L-broth with 0.5% glucose as described previously and harvested at OD550=0.1 (early-log), 0.5 (mid-log), 1.0 (late-log) and 2.0 (stationary cells). The cells in each culture were concentrated and split in two aliquots. […]

[1] = 10% MAG at 37° C., Incubated for 0 min
[2] = 10% MAG at 37° C., Incubated for 2.5 min
[3] = 10% MAG at 37° C., Incubated for 5 min
[4] = 10% MAG at 37° C., Incubated for 15 min
[5] = 10% MAG at 37° C., Incubated for 30 min
[6] = 10% MAG at 37° C., Incubated for 60 min
[7] = 10% MAG for 30 minutes, Loaded at 0° C.
[8] = 10% MAG for 30 minutes, Loaded at 20° C.
[9] = 10% MAG for 30 minutes, Loaded at 40° C.
[10] = 10% MAG for 30 minutes, Loaded at 60° C.

Structure (SMILES): COC1OC(CO)C(O)C(O)C1O (centres unmarked) [MAG, a-methyl-glucoside]
- Preservation Yield % Survival [1]: 2.6 +/− 0.8%
- Preservation Yield Cfu/ml [1]: 5.3 × 10^7 +/− 1.7 × 10^7 Cfu/ml
- Stability (7 days at RT) % Survival [1]: 1.2 +/− 0.7%
- Stability (7 days at RT) Cfu/ml [1]: 2.4 × 10^7 Cfu/ml
- Stability (17 days at RT) % Survival [1]: 1.8 +/− 0.5%
- Stability (17 days at RT) Cfu/ml [1]: 3.6 × 10^7 Cfu/ml
- Preservation Yield % Survival [2]: 5.8 +/− 1.1%
- Preservation Yield Cfu/ml [2]: 1.2 × 10^8 +/− 2.1 × 10^7 Cfu/ml
- Stability (7 days at RT) % Survival [2]: 4.9 +/− 0.8%
- Stability (7 days at RT) Cfu/ml [2]: 9.6 × 10^7 Cfu/ml
- Stability (17 days at RT) % Survival [2]: 2.9 +/− 0.6%
- Stability (17 days at RT) Cfu/ml [2]: 5.9 × 10^7 Cfu/ml
- Preservation Yield % Survival [3]: 9.9 +/− 0.6%
- Preservation Yield Cfu/ml [3]: 2.0 × 10^8 +/− 1.1 × 10^7 Cfu/ml
- Stability (7 days at RT) % Survival [3]: 6.8 +/− 1.2%
- Stability (7 days at RT) Cfu/ml [3]: 1.4 × 10^8 Cfu/ml
- Stability (17 days at RT) % Survival [3]: 9.5 +/− 2.7%
- Stability (17 days at RT) Cfu/ml [3]: 1.9 × 10^8 Cfu/ml
- Preservation Yield % Survival [4]: 16.8 +/− 2.8%
- Preservation Yield Cfu/ml [4]: 3.4 × 10^8 +/− 5.6 × 10^7 Cfu/ml
- Stability (7 days at RT) % Survival [4]: 10.4 +/− 0.4%
- Stability (7 days at RT) Cfu/ml [4]: 2.1 × 10^8 Cfu/ml
- Stability (17 days at RT) % Survival [4]: 11.8 +/− 2.6%
- Stability (17 days at RT) Cfu/ml [4]: 2.4 × 10^8 Cfu/ml
- Preservation Yield % Survival [5]: 19.9 +/− 2.2%
- Preservation Yield Cfu/ml [5]: 4.0 × 10^8 +/− 4.4 × 10^7 Cfu/ml
- Stability (7 days at RT) % Survival [5]: 13.0 +/− 2.7%
- Stability (7 days at RT) Cfu/ml [5]: 2.6 × 10^8 Cfu/ml
- Stability (17 days at RT) % Survival [5]: 16.8 +/− 2.6%
- Stability (17 days at RT) Cfu/ml [5]: 3.4 × 10^8 Cfu/ml
- Preservation Yield % Survival [6]: 22.2 +/− 3.0%
- Preservation Yield Cfu/ml [6]: 4.4 × 10^8 +/− 6.1 × 10^7 Cfu/ml
- Stability (7 days at RT) % Survival [6]: 16.3 +/− 1.9%
- Stability (7 days at RT) Cfu/ml [6]: 3.3 × 10^8 Cfu/ml
- Stability (17 days at RT) % Survival [6]: 19.3 +/− 3.9%
- Stability (17 days at RT) Cfu/ml [6]: 3.9 × 10^8 Cfu/ml
- Preservation Yield % Survival [7]: 8.2 +/− 1.4%
- Preservation Yield Cfu/ml [7]: 1.6 × 10^8 Cfu/ml
- Stability (9 Days at RT°) % Survival [7]: 5.0 +/− 0.6%
- Stability (9 Days at RT°) Cfu/ml [7]: 9.4 × 10^7 Cfu/ml
- Stability (16 Days at RT°) % Survival [7]: 5.2 +/− 1.5%
- Stability (16 Days at RT°) Cfu/ml [7]: 9.9 × 10^7 Cfu/ml
- Preservation Yield % Survival [8]: 14.1 +/− 2.6%
- Preservation Yield Cfu/ml [8]: 2.7 × 10^8 Cfu/ml
- Stability (9 Days at RT°) % Survival [8]: 8.7 +/− 0.6%
- Stability (9 Days at RT°) Cfu/ml [8]: 1.6 × 10^8 Cfu/ml
- Stability (16 Days at RT°) % Survival [8]: 7.3 +/− 1.7%
- Stability (16 Days at RT°) Cfu/ml [8]: 1.4 × 10^8 Cfu/ml
- Preservation Yield % Survival [9]: 23.2 +/− 3.5%
- Preservation Yield Cfu/ml [9]: 4.4 × 10^8 Cfu/ml
- Stability (9 Days at RT°) % Survival [9]: 28.1 +/− 3.5%
- Stability (9 Days at RT°) Cfu/ml [9]: 5.3 × 10^8 Cfu/ml
- Stability (16 Days at RT°) % Survival [9]: 21.0 +/− 1.9%
- Stability (16 Days at RT°) Cfu/ml [9]: 3.9 × 10^8 Cfu/ml
- Preservation Yield % Survival [10]: 0%
- Preservation Yield Cfu/ml [10]: 1.4 × 10^4 Cfu/ml
- Stability (9 Days at RT°) % Survival [10]: 0%
- Stability (9 Days at RT°) Cfu/ml [10]: 1.2 × 10^4 Cfu/ml
- Stability (16 Days at RT°) % Survival [10]: 0%
- Stability (16 Days at RT°) Cfu/ml [10]: 1.3 × 10^4 Cfu/ml
- Preservation Yield (Day 0) % Survival (OD = 0.1 (early-log)): 11.3 +/− 0.9%
- Preservation Yield (Day 0) Cfu/ml (OD = 0.1 (early-log)): 1.6 × 10^7 Cfu/ml
- Stability (Day 7 at RT) % Survival (OD = 0.1 (early-log)): 8.2 +/− 0.8%
- Stability (Day 7 at RT) Cfu/ml (OD = 0.1 (early-log)): 1.2 × 10^7 Cfu/ml
- Stability (Day 14) % Survival (OD = 0.1 (early-log)): 9.9 +/− 2.2%
- Stability (Day 14) Cfu/ml (OD = 0.1 (early-log)): 1.5 × 10^7 Cfu/ml
- Preservation Yield (Day 0) % Survival (OD = 0.5 (mid-log)): 22.2 +/− 2.9%
- Preservation Yield (Day 0) Cfu/ml (OD = 0.5 (mid-log)): 5.5 × 10^8 Cfu/ml
- Stability (Day 7 at RT) % Survival (OD = 0.5 (mid-log)): 21.6 +/− 4.7%
- Stability (Day 7 at RT) Cfu/ml (OD = 0.5 (mid-log)): 5.3 × 10^8 Cfu/ml
- Stability (Day 14) % Survival (OD = 0.5 (mid-log)): 17.4 +/− 1.2%
- Stability (Day 14) Cfu/ml (OD = 0.5 (mid-log)): 4.3 × 10^8 Cfu/ml
- Preservation Yield (Day 0) % Survival (OD = 1.0 (late-log)): 26.3 +/− 4.7%
- Preservation Yield (Day 0) Cfu/ml (OD = 1.0 (late-log)): 2.3 × 10^9 Cfu/ml
- Stability (Day 7 at RT) % Survival (OD = 1.0 (late-log)): 36.1 +/− 7.5%
- Stability (Day 7 at RT) Cfu/ml (OD = 1.0 (late-log)): 3.2 × 10^9 Cfu/ml
- Stability (Day 14) % Survival (OD = 1.0 (late-log)): 33.0 +/− 5.7%
- Stability (Day 14) Cfu/ml (OD = 1.0 (late-log)): 2.9 × 10^9 Cfu/ml
- Preservation Yield (Day 0) % Survival (OD = 2.0 (stationary cells)): 38.8 +/− 5.8%
- Preservation Yield (Day 0) Cfu/ml (OD = 2.0 (stationary cells)): 2.8 × 10^9 Cfu/ml
- Stability (Day 7 at RT) % Survival (OD = 2.0 (stationary cells)): 29.9 +/− 3.6%
- Stability (Day 7 at RT) Cfu/ml (OD = 2.0 (stationary cells)): 2.1 × 10^9 Cfu/ml
- Stability (Day 14) % Survival (OD = 2.0 (stationary cells)): 35.3 +/− 7.5%
- Stability (Day 14) Cfu/ml (OD = 2.0 (stationary cells)): 2.5 × 10^9 Cfu/ml
- survived drying (mid-logarithmic cells loaded with 1% at 37° C. for 30 minutes): 12%
- survived drying (mid-logarithmic cells loaded with 5% at 37° C. for 30 minutes): 24%
